Read-outs that look alike come from different tables or passages of the source.
What was measured:
[1] = system: multi-resistant protein (MRP) efflux proteins; test: PET Logan graphical analysis of brain VT after probenecid; assay type: in vivo, Sprague–Dawley rats; conditions: for Kp: Sprague-Dawley, rat, iv, with probenecid 150 mg/kg i.v., after probenecid 150 mg·kg^−1 i.v., n = 2, metabolite-corrected
Description: (§1) Following cannulation of the femoral vein, animals were positioned in pairs in a double LSO/LYSO layer high-resolution research tomograph (CTI/Siemens, Knoxville, TN, USA). First, for attenuation and scatter correction purposes, a transmission scan was acquired using a 740-MBq two-dimensional fan-collimated ^137Cs (662 keV) moving point source. Next, a dynamic emission scan was acquired immediately following administration of 17.1 ± 2.1 MBq (mean ± SD) ^11C]phenytoin to each rat. Two animals had one single ^11C]phenytoin scan; two animals had two consecutive scans, and two had three consecutive scans. Finally, all animals underwent an ^18F]FDG scan before being euthanized. Tariquidar, 15 mg·kg^−1, was used to completely block P-gp, while probenecid, 150 mg·kg^−1, was used to inhibit multi-resistant protein (MRP) efflux proteins. Tariquidar and probenecid were administered i.v. 20 min prior to the scan start as a 10-min infusion. All animals, except one, were scanned without any treatment prior to the first ^11C]phenytoin scan. Of the animals that had two scans, one underwent two post-tariquidar scans (animal 4, Table 1). […] Animals that underwent three consecutive scans had one baseline, one post probenecid and one post-tariquidar scan. During each scan, emission data were acquired for 60 min in list mode and rebinned into the following frame sequence: 7 × 10, 1 × 20, 3 × 30, 2 × 60, 2 × 150, 2 × 300 and 4 × 600 s. Following corrections for decay, dead time, attenuation, random and scatter, scans were reconstructed using a 3D ordinary Poisson ordered subsets expectation maximization algorithm. […] PET image data were analyzed using the freely available software package Amide 0.9 [31]. A magnetic resonance (MR)-based rat brain atlas was used to define five regions of interest (ROIs): the hippocampus, occipital cortex, parietal cortex, caudate putamen and cerebellum. The MR atlas including all ROIs was aligned visually with the summed ^18F]FDG image for each rat. ROIs were then projected onto all frames of all ^11C]phenytoin scans, resulting in ^11C]phenytoin time-activity curves for each scan and rat.
(§2) During each [^11C]phenytoin scan, arterial blood samples of 0.1 mL were taken at 20 and 40 s and at 1, 2, 5, 15, 30 and 60 min after [^11C]phenytoin injection. For animals that underwent three scans, the amount of blood withdrawn was reduced by replacing the two samples at 15 and 30 min with a single 20-min sample. Plasma was obtained by centrifugation at 4,000 rpm for 5 min at 4°C, and activity in both plasma and whole blood was measured in an automated 1282 Compugamma CS Universal Gamma Counter (LKB Wallac, Turku, Finland), cross-calibrated against the PET scanner. Standardized uptake values (SUVs) as a function of time were derived by normalizing measured radioactivity concentrations against injected dose and body weight.
To obtain a model independent estimate of the brain-to-plasma partition coefficient, often referred to as volume of distribution, Logan graphical analysis was used. Before Logan analysis, both brain and plasma concentrations were corrected for labeled metabolites. As metabolite fractions were not measured at each plasma or mid-frame time point, linear regression was used to estimate the fraction of intact ^11C]phenytoin at each time point.

P-gp = test: PET brain time-activity curves (SUV), baseline and after tariquidar P-gp block; assay type: in vivo, Sprague–Dawley rats
Description: as §1, §2

Kp ([1]; caudate putamen (relative to plasma), read-out: VT (Logan), caudate putamen): 0.57 ± 0.01 | Kp ([1]; cerebellum (relative to plasma), read-out: VT (Logan), cerebellum): 0.61 ± 0.01 | Kp ([1]; hippocampus (relative to plasma), read-out: VT (Logan), hippocampus): 0.59 | Kp ([1]; occipital cortex (relative to plasma), read-out: VT (Logan), occipital cortex): 0.59 | Kp ([1]; parietal cortex (relative to plasma), read-out: VT (Logan), parietal cortex): 0.57 ± 0.03 | Change in VT after probenecid (interaction with MRP) ([1]; probenecid 150 mg·kg^−1, n = 2, animals in poor condition): no indication of an increase in VT | Brain SUV at 60 min (corrected for metabolites) (P-gp; baseline scans): around 0.2 | Maximum brain SUV (P-gp; baseline scans): around 0.8 | Brain SUV at 60 min (corrected for metabolites) (P-gp; post-tariquidar scans): ~0.3 | Maximum brain SUV (P-gp; post-tariquidar scans): ~0.9 | Time of maximum brain concentration after bolus injection (P-gp; rats): approximately 5 min | Increase in brain SUV at 10 to 60 min after tariquidar (P-gp; tariquidar 15 mg·kg^−1, rat, on average): about 50%
SMILES: O=C1N[11C](=O)NC1(c1ccccc1)c1ccccc1 [[^11C]phenytoin]
